What follows are compounds tested against T1, human GnRH receptor1 (GnRHR1) (Homo sapiens, UniProt P30968) (assay: Assay of inhibitory effect for the change of calcium levels in GnRH-stimulated cells (hGnRHR1#1 HEK293 cells, FLIPR Calcium Assay Kit)). Details: drug concentration at which 50% GnRH-stimulated intracellular calcium flux was inhibited, 10 nM GnRH.
T1 construct: expressed in transfected cells
T1 sequence (P30968 1-328): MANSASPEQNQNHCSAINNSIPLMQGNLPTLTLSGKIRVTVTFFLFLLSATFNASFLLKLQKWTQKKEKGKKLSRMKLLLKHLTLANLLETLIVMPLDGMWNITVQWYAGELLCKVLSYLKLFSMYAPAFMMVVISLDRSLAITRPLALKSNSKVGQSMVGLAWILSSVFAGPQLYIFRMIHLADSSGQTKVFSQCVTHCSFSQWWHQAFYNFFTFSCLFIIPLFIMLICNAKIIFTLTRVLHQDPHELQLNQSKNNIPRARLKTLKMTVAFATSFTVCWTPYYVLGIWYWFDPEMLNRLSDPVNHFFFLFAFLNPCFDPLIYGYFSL
Format: cell-based
From the text: 1) Cloning and Construction of the Vector Expressing Human GnRH Receptor1 (GnRHR1)
Using cDNA derived from human pituitary (BECTON DICKINSON) as a template, the DNA fragment coding 45 to 1115 bp of human GnRHR1 (Accession No. L03380), which was reported by Kakar et al., was amplified by PCR method and inserted into the multi-cloning site of pcDNA3.1(+) (Invitrogen). The DNA sequence inserted was perfectly matched to the previously reported sequence.
2) Establishment of Cell Line Stably Expressing Human GnRH Receptor1 HEK293 Cells
The expression vector of human GnRHR1 gene, was digested by XhoI into a linear DNA. The linear DNA was transfected into HEK293 cells by means of lipofection (Lipofectamine-2000: Invitrogen). Neomycin resistant cell lines were selected by culture in the medium containing G418 (Invitrogen) at 1 mg/mL, and then the change of calcium levels in GnRH-stimulated cells was measured by the method described below.
3) Assay of Inhibitory Effect for the Change of Calcium Levels in GnRH-Stimulated Cells
Antagonizing effect of compounds for human GnRHR1 was evaluated by depression of calcium levels in GnRH-stimulated cells. hGnRHR1#1 cells were seeded into a 96-well culture plate at a density of 1.5×10^5 cells/well and cultured for a day. After removing the culture medium, cells were washed with 200 μL per well of the washing buffer (Hanks' Balanced Salt Solutions, 20 mM N-2-hydroxyethylpiperazine-N′-2-ethanesulfonic acid, 1.3 mM calcium chloride, 0.5 mM magnesium chloride, 0.4 mM magnesium sulfate). One hundred μL of the Ca^2+ sensitive dye solution (FLIPR Calcium Assay Kit, Molecular Devices) was added to the well, and the cells were incubated for 1 hour at 37° C. in 5% CO2 incubator. Then, intracellular calcium levels were determined under the following condition by using FLEX STATION (Molecular Devices). In the equipment, which was warmed to 37° C., 50 μL of test compound diluted with the measurement buffer (the washing buffer with 0.1% Albumin bovine serum) was added to the well. After 1 minute, 50 μL of 10 nM GnRH was added to the well. The drug concentration, at which 50% GnRH-stimulated intracellular calcium flux was inhibited (IC50 value), was calculated using logit plot (Table 106).
In the case of `CC(C)(c1ccccc1)S(=O)(=O)c1ccc(Cl)c(-n2c(=O)[nH]c3ccc(C(=O)O)nc32)c1` [Example 35], the IC50 is reported as 193 nM. Work on `COc1cc(Cl)c(-n2c(=O)[nH]c3c(OC)ncnc32)cc1OCc1c(OC)ccc(F)c1F` [Example 39] yielded an IC50 of 27 nM. In the case of `COc1ccc(F)c(F)c1CN(C(C)=O)c1ccc(Cl)c(-n2c(=O)[nH]c3c(C)cc(C(=O)O)nc32)c1` [Example 81], the IC50 is reported as 32 nM. `Cc1cc(C(=O)O)nc2c1[nH]c(=O)n2-c1cc(S(=O)(=O)N2CCCCc3ccccc32)ccc1F` [Example 93] was tested, and the IC50 was 20 nM. `COc1cc(F)c(-n2c(=O)[nH]c3c(C)cc(C(=O)O)nc32)cc1SC(C)(C)c1ccccc1Cl` [Example 109] gave an IC50 of 36 nM. For `COc1cccc(F)c1C(C)(C)S(=O)(=O)c1ccc(Cl)c(-n2c(=O)[nH]c3c(C)cc(C(=O)O)nc32)c1` [Example 128], the IC50 was 24 nM. For `Cc1cc(CO)nc2c1[nH]c(=O)n2-c1cc(S(=O)(=O)N2CCCCc3ccccc32)ccc1Cl` [Example 152, 3-[2-Chloro-5-(2,3,4,5-tetrahydro-1H-1-benzoazepin-1-ylsulfonyl)phenyl]-5-hydroxymethyl-7-methyl-1,3-dihydro-2H-imidazo[4,5-b]pyridin-2-one], the IC50 was 32 nM. Work on `Cc1cc(/C(N)=N/O)nc2c1[nH]c(=O)n2-c1cc(S(=O)(=O)N2CCCCc3ccccc32)ccc1Cl` [Example 160, 3-[2-Chloro-5-(2,3,4,5-tetrahydro-1H-1-benzoazepin-1-ylsulfonyl)phenyl]-5-hydroxycarbamimidoyl-7-methyl-1,3-dihydro-2H-imidazo[4,5-b]pyridin-2-one] yielded an IC50 of 99 nM. For `COc1ccccc1N(C)S(=O)(=O)c1ccc(Cl)c(-n2c(=O)[nH]c3c(OC)ncnc32)c1` [Example 199], the IC50 was 46 nM. `COc1cccc(F)c1COc1cc(-n2c(=O)[nH]c3c(OC)nc(CF)nc32)c(Cl)cc1OCCO` [Example 251] showed an IC50 of 54 nM. For `COc1ncnc2c1[nH]c(=O)n2-c1cc(OCc2c(OCCNC(C)=O)ccc(F)c2F)ccc1Cl` [Example 262], the IC50 was 62 nM. `COc1cccc(F)c1COc1cc(-n2c(=O)[nH]c3c(OC)nc(CO)nc32)c(Cl)cc1OCC(=O)O` [Example 274] gave an IC50 of 15 nM. With `COc1cc(Cl)c(-n2c(=O)[nH]c3c(OC)nc(CCO)nc32)cc1OCc1c(F)cccc1OC` [Example 314, 9-[2-Chloro-5-(2-fluoro-6-methoxybenzyloxy)-4-methoxyphenyl]-2-(2-hydroxyethyl)-6-methoxy-7,9-dihydro-8H-purin-8-one] the IC50 was 23 nM. `COc1ccc(F)c(F)c1COc1cc(-n2c(=O)[nH]c3c(OC)nc(CF)nc32)c(Cl)cc1OCC(=O)NCCO` [Example 341] showed an IC50 of 32 nM. Work on `COc1ccc(F)c(F)c1COc1cc(-n2c(=O)[nH]c3c(OC)nc(C(F)F)nc32)c(Cl)cc1OCC(=O)N(C)C` [Example 345] yielded an IC50 of 17 nM. With `CNC(=O)COc1cc(Cl)c(-n2c(=O)[nH]c3c(OC)nc(C(C)=O)nc32)cc1OCc1c(OC)ccc(F)c1F` [Example 346] the IC50 was 38 nM. With `COc1cc(Cl)c(-n2c(=O)[nH]c3c(C)nc(N)nc32)cc1OCc1c(OC)ccc(F)c1F` [Example 381, 2-Amino-9-[2-chloro-5-(2,3-difluoro-6-methoxybenzyloxy)-4-methoxyphenyl]-6-methyl-7,9-dihydro-8H-purin-8-one] the IC50 was 36 nM. `CCNC(=O)COc1cc(Cl)c(-n2c(=O)[nH]c3c(C(C)=O)nc(C)nc32)cc1OCc1c(F)cccc1OC` [Example 452] was tested, and the IC50 was 19 nM.

Source: patent publication US8217069B2, “Nitrogenated fused ring derivative, pharmaceutical composition comprising the same, and use of the same for medical purposes” (Kissei Pharmaceutical Co., Ltd., priority 2007, dated 2012)
